# In BindingDB's records for doi:10.1016/0014-5793(93)80368-5 (University of Heidelberg Zmbh, 1993):
# Target: 5-hydroxytryptamine receptor 5B (Rattus norvegicus, UniProt P35365)
# Sequence (P35365 whole entry): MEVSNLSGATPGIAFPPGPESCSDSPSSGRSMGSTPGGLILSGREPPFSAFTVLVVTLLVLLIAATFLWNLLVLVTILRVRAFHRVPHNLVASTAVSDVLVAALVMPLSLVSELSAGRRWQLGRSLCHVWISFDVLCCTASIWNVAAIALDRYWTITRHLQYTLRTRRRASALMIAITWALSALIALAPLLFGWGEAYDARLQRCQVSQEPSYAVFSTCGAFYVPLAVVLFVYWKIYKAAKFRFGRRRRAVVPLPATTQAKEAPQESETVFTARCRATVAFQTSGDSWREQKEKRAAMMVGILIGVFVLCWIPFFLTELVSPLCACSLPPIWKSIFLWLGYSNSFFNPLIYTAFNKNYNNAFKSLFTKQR
row,SMILES,Ki [nM]
1,CCCN(CCC)C1CCc2cccc(O)c2C1 (stereo not given),46
2,CC[C@@H](CO)NC(=O)[C@@H]1C=C2c3cccc4c3c(cn4C)C[C@H]2N(C)C1,40.7
3,NCCc1c[nH]c2ccc(OCC(=O)NCC(=O)N[C@@H](Cc3ccc(O)cc3)C(N)=O)cc12,582
4,"O=C(c1ccc(F)cc1)C1CCN(CCn2c(=O)[nH]c3ccccc3c2=O)CC1 [3-(2-{4-[(4-fluorophenyl)carbonyl]piperidin-1-yl}ethyl)-1,2,3,4-tetrahydroquinazoline-2,4-dione]",1000
5,"CN1CCC(=C2c3ccccc3C=Cc3ccccc32)CC1 [5-(1-methylpiperidylidene-4)-5H-dibenzo(a,d)cyclopheptene]",117
6,"CN1CC(C(=O)N[C@]2(C)O[C@@]3(O)C4CCCN4C(=O)[C@H](Cc4ccccc4)N3C2=O)CC2c3cccc4[nH]cc(c34)CC21 (stereo partly drawn) [7-Methyl-4,6,6a,7,8,9,10,10a-octahydro-indolo[4,3-fg]quinoline-9-carboxylic acid ((2R,5S,10bS)-5-benzyl-10b-hydroxy-2-methyl-3,6-dioxo-octahydro-oxazolo[3,2-a]pyrrolo[2,1-c]pyrazin-2-yl)-amide]",31
7,"O=C(CCCN1CCC2(CC1)C(=O)NCN2c1ccccc1)c1ccc(F)cc1 [8-[4-(4-fluorophenyl)-4-oxidanylidene-butyl]-1-phenyl-1,3,8-triazaspiro[4.5]decan-4-one]",1000
8,"CCN(CC)C(=O)[C@@H]1C=C2c3cccc4[nH]cc(c34)C[C@H]2N(C)C1 [(4R,7R)-N,N-diethyl-6-methyl-6,11-diazatetracyclo[7.6.1.0^{2,7}.0^{12,16}]hexadeca-1(16),2,9,12,14-pentaene-4-carboxamide]",3.2
9,CC(C)NCC(O)COc1cccc2[nH]ccc12 (stereo not given) [LB-46],1000
10,CNS(=O)(=O)Cc1ccc2[nH]cc(CCN(C)C)c2c1 [Sumax],807
